Measurements: ChEMBL document CHEMBL4804281, “STK4 inhibitors for treatment of hematologic malignancies” (2020)

Assays:
[1] = target: T1, Mitogen-activated protein kinase 12 (Homo sapiens) (UniProt P53778); experiment: Inhibition of P38gamma in human NCI-H929 cells at 10 uM by mass spectroscopic analysis relative to control; assay type: cell-based
T1 sequence (whole entry): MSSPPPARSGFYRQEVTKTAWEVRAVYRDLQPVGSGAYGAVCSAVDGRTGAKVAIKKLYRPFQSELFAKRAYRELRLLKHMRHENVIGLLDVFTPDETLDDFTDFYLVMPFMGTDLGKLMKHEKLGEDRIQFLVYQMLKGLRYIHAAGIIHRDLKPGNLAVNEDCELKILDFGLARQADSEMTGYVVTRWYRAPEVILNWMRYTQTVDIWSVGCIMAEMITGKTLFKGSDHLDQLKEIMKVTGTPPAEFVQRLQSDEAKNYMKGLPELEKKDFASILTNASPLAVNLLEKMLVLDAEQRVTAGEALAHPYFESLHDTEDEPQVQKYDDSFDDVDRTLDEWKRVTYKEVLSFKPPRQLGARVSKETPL

[2] = target: Tyrosine-protein kinase Yes (Homo sapiens) (UniProt P07947); experiment: Inhibition of YES in human NCI-H929 cells at 10 uM by mass spectroscopic analysis relative to control; assay type: cell-based
Tyrosine-protein kinase Yes (Homo sapiens), sequence (P07947 2-543 limits assumed): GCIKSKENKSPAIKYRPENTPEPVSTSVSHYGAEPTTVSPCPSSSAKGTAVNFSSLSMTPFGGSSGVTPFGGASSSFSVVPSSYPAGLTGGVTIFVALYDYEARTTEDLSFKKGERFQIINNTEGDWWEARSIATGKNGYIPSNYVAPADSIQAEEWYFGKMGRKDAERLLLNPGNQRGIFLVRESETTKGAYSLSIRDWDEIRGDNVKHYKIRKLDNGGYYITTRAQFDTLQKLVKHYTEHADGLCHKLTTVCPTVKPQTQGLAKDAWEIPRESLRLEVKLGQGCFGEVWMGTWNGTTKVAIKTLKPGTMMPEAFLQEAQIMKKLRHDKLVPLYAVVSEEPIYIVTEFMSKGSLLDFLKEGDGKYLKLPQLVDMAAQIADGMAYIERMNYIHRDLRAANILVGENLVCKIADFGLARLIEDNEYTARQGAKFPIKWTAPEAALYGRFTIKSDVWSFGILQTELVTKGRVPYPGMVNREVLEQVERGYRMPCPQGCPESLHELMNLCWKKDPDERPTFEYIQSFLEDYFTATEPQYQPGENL

[3] = target: T2, Kinase suppressor of Ras 2 (Homo sapiens) (UniProt Q6VAB6); experiment: Inhibition of KSR2 in human NCI-H929 cells at 10 uM by mass spectroscopic analysis relative to control; assay type: cell-based
T2 sequence (whole entry): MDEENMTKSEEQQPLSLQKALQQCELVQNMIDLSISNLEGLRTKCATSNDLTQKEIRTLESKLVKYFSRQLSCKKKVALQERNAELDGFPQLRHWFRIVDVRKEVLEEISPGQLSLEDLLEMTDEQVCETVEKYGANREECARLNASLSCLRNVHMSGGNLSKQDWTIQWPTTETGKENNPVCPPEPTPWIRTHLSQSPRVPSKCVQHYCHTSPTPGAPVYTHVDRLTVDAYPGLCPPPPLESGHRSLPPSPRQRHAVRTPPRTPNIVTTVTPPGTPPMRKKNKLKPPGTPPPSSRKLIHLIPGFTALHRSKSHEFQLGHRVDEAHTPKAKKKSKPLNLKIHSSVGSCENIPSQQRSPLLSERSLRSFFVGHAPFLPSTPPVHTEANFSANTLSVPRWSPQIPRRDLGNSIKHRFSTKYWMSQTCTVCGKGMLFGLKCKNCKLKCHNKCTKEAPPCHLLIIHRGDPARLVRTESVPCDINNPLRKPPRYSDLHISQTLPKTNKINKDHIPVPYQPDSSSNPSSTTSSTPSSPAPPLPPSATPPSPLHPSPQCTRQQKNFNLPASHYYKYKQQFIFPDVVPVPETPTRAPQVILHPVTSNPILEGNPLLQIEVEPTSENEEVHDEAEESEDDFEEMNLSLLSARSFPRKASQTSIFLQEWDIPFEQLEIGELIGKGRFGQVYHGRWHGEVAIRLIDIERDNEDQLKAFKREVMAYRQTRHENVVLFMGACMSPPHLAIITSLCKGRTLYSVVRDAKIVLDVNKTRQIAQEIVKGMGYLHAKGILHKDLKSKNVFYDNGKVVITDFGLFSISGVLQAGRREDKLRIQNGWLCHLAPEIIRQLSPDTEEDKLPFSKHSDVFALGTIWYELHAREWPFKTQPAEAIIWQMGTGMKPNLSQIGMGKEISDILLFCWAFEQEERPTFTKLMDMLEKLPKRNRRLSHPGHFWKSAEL

[4] = target: MAP kinase-activated protein kinase 2 (Homo sapiens) (UniProt P49137); experiment: Inhibition of MAPKAPK2 in human NCI-H929 cells at 10 uM by mass spectroscopic analysis relative to control; assay type: cell-based
[5] = target: PRKCI, protein kinase C iota (Homo sapiens) (UniProt P41743); experiment: Inhibition of PKCi in human NCI-H929 cells at 10 uM by mass spectroscopic analysis relative to control
[6] = target: Mitogen-activated protein kinase 8 (Homo sapiens) (UniProt P45983); experiment: Inhibition of JNK1 in human NCI-H929 cells at 10 uM by mass spectroscopic analysis relative to control; assay type: cell-based
Mitogen-activated protein kinase 8 (Homo sapiens), sequence (P45983 whole entry): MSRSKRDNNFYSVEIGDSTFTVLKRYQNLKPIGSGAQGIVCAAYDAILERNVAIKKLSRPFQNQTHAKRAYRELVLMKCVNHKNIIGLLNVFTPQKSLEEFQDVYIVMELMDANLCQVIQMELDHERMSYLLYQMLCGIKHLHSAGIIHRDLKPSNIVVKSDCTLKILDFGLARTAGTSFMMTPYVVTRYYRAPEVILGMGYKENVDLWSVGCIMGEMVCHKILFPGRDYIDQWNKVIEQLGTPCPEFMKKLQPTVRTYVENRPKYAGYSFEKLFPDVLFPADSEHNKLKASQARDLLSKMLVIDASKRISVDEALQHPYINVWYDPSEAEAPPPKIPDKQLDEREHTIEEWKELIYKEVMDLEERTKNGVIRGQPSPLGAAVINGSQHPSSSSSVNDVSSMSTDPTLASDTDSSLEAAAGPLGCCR

[7] = target: Mitogen-activated protein kinase 9 (Homo sapiens) (UniProt P45984); experiment: Inhibition of JNK2 in human NCI-H929 cells at 10 uM by mass spectroscopic analysis relative to control; assay type: cell-based
[8] = target: Proto-oncogene tyrosine-protein kinase Src (Homo sapiens) (UniProt P12931); experiment: Inhibition of SRC in human NCI-H929 cells at 10 uM by mass spectroscopic analysis relative to control; assay type: cell-based
Proto-oncogene tyrosine-protein kinase Src (Homo sapiens), sequence (P12931 2-536 limits assumed): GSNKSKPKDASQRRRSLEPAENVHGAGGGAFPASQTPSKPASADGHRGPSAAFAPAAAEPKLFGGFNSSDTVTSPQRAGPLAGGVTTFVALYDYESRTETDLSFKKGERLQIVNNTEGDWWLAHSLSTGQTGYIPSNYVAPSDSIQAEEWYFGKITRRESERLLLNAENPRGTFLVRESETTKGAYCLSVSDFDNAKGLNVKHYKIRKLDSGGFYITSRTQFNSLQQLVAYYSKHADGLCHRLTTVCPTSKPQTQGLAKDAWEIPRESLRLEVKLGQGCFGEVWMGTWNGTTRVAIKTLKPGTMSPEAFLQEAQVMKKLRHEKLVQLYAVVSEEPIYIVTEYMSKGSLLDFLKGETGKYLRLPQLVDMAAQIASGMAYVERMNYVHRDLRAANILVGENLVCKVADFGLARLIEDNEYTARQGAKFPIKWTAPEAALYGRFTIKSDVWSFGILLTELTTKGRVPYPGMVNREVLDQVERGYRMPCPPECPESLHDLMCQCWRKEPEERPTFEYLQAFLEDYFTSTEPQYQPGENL

[9] = target: Phosphatidylinositol 4-kinase alpha (Homo sapiens) (UniProt P42356); experiment: Inhibition of PI4KA in human NCI-H929 cells at 10 uM by mass spectroscopic analysis relative to control; assay type: cell-based
Phosphatidylinositol 4-kinase alpha (Homo sapiens), sequence (P42356 whole entry, looked up): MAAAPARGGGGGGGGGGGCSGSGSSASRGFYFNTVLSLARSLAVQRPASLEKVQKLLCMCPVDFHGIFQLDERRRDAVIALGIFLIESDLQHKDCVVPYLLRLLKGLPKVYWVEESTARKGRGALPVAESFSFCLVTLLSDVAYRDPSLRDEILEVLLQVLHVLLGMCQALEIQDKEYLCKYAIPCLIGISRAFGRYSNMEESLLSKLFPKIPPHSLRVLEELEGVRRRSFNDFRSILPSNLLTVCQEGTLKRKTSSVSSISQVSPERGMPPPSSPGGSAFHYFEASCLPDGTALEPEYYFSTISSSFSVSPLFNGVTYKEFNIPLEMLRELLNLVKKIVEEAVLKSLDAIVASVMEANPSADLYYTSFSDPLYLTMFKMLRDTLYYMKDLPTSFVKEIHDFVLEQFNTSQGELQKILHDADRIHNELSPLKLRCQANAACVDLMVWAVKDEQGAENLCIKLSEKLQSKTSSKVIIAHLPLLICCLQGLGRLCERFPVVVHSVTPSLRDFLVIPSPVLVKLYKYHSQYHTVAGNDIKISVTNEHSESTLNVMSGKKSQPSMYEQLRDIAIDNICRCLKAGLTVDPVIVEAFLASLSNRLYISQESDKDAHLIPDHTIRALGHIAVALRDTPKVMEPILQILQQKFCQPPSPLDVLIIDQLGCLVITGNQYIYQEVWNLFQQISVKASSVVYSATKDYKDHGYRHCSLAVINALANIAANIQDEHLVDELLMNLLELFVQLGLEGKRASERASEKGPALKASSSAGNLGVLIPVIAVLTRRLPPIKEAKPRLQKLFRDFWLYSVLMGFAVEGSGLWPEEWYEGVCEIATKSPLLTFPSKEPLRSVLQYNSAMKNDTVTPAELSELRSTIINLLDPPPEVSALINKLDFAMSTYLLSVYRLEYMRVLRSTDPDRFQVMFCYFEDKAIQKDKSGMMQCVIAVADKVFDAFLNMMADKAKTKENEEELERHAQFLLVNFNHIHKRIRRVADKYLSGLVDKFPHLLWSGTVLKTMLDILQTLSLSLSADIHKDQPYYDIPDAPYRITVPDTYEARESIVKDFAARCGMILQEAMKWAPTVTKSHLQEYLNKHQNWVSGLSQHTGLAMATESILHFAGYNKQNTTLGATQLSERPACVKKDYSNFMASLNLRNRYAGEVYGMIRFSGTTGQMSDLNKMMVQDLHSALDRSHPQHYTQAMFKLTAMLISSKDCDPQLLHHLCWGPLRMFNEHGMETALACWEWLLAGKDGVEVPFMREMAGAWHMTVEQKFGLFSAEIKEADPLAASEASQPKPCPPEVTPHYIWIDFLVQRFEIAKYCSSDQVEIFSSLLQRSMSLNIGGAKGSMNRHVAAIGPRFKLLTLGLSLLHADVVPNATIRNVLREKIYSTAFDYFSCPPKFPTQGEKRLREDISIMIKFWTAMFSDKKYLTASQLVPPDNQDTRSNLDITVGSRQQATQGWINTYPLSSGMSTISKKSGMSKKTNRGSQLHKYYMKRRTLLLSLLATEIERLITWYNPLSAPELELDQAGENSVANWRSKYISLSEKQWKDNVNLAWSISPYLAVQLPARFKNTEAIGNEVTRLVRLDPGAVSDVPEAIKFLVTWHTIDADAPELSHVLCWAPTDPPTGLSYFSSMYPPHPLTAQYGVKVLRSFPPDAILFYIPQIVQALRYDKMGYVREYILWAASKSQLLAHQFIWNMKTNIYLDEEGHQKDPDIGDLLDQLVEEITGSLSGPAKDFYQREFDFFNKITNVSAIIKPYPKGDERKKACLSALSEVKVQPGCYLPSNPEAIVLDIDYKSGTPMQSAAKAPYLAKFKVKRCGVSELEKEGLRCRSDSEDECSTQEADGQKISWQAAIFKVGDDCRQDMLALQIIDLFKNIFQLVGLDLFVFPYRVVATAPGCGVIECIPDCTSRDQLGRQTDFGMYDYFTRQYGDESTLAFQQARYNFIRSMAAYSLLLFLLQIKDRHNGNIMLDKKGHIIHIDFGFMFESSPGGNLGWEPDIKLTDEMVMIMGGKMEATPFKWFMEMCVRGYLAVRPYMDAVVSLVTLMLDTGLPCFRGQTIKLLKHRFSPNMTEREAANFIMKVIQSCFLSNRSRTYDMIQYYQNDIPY

[10] = target: T3, Serine/threonine-protein kinase 4 (Homo sapiens) (UniProt Q13043); experiment: Inhibition of STK4 (unknown origin) using fluorescein-labelled Ser/Thr-07 peptide as substrate incubated for 1 hr in presence of ATP at Km concentration by Z-LYTE assay
T3 sequence (whole entry): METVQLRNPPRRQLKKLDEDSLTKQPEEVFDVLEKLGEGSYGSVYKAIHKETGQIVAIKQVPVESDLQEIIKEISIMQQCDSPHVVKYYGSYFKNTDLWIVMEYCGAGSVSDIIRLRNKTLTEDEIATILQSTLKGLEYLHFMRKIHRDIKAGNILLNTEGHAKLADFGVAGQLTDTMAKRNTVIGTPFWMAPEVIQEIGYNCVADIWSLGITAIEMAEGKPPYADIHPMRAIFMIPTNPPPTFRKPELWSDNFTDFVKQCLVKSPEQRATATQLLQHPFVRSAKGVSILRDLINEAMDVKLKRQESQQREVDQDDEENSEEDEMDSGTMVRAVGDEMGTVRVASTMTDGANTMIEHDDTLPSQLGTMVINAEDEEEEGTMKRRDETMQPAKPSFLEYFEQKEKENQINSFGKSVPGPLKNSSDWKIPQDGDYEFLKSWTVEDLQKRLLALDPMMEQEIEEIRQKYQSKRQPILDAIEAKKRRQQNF

[11] = target: Mitogen-activated protein kinase kinase kinase kinase 4 (Homo sapiens) (UniProt O95819); experiment: Inhibition of HGK in human NCI-H929 cells at 10 uM by mass spectroscopic analysis relative to control; assay type: cell-based
Mitogen-activated protein kinase kinase kinase kinase 4 (Homo sapiens), sequence (O95819 2-1239 limits assumed): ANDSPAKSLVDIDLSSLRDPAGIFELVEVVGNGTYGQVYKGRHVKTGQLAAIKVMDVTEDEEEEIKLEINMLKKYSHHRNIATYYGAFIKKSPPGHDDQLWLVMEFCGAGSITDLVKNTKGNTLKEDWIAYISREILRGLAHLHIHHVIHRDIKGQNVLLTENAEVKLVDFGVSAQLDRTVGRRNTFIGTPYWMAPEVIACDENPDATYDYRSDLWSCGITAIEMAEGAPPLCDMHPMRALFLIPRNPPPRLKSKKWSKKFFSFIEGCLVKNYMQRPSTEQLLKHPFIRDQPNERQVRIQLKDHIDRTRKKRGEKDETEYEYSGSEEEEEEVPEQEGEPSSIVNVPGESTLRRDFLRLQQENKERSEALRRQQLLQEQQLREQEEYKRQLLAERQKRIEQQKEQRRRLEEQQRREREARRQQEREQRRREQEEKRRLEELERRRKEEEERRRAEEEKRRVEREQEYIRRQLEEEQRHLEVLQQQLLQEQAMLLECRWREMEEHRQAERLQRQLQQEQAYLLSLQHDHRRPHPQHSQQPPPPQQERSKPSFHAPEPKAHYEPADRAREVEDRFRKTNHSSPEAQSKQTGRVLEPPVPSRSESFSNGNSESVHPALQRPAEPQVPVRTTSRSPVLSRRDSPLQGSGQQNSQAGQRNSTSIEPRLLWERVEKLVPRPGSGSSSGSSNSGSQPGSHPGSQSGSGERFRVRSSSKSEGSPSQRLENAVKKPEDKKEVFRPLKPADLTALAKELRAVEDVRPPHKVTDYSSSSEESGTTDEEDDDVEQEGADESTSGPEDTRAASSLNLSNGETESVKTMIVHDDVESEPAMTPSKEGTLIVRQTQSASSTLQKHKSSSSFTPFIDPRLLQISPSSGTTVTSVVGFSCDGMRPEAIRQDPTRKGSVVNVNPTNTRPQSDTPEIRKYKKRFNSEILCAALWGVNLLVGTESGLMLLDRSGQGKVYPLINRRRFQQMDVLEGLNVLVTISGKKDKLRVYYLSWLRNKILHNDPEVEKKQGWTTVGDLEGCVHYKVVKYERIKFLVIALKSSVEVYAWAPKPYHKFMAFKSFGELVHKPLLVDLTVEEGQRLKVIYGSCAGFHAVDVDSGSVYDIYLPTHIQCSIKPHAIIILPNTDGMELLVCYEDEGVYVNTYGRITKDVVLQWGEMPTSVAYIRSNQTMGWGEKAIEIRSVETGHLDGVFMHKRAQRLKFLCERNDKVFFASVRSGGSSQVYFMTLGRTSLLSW

| inhibition [1] | inhibition [2] | inhibition [3] | inhibition [4] | inhibition [5] | inhibition [6] | inhibition [7] | inhibition [8] | inhibition [9] | IC50 [10] | inhibition [11] | Structure (SMILES) |
| --- | --- | --- | --- | --- | --- | --- | --- | --- | --- | --- | --- |
| 0% | 0% | 0% | 0% | 0% | 0% | 0% | 0% | 0% | < 0.04 µM | > 90% | CN(C1CC1)S(=O)(=O)c1ccc(-c2cnc(N)c(-c3ccc4c(c3)CCNC4=O)c2)c(F)c1 |
| 0% | > 90% | 0% | 0% | 0% | 0% | 0% | 0% | 0% | < 0.04 µM | > 90% | COc1cc(NS(=O)(=O)C2CC2)ccc1-c1cnc(N)c(-c2ccc3c(c2)CCNC3=O)c1 |
| 0% | 0% | 0% | 0% | 0% | 0% | 0% | 0% | 0% | < 0.04 µM | > 90% | Nc1ncc(-c2ccc(NS(=O)(=O)C3CC3)cc2F)cc1-c1ccc2c(c1)CCNC2=O |

Second part, the molecule before the results:

| Structure (SMILES) | inhibition [1] | inhibition [2] | inhibition [3] | inhibition [4] | inhibition [5] | inhibition [6] | inhibition [7] | inhibition [8] | inhibition [9] | IC50 [10] | inhibition [11] |
| --- | --- | --- | --- | --- | --- | --- | --- | --- | --- | --- | --- |
| Nc1ncc(-c2cccc3ncsc23)cc1-c1ccc2c(c1)CCNC2=O | 0% | 0% | 0% | 0% | 0% | 0% | 0% | 0% | 0% | < 0.04 µM | > 90% |
| Nc1ncc(-c2cccc([N+](=O)[O-])c2F)cc1-c1ccc2c(c1)CCNC2=O | 0% | 0% | 0% | 0% | 0% | 0% | 0% | 0% | 0% | < 0.04 µM | > 90% |
| Nc1ncc(-c2ccc(NS(=O)(=O)C3CC3)cc2OC2CCCCC2)cc1-c1ccc2c(c1)CCNC2=O | 0% | 0% | 0% | 0% | 0% | 0% | 0% | 0% | 0% | < 0.04 µM | > 90% |
